Experimental data as given in PubChem BioAssay AID1919006 (Molecular Pharmacology Branch, DTP, NCI, 2023).
“And” between values parts separate entries of the source, which are not always exact repeats. Equal values may be shown once. One block for each compound: values may come before it.

Tested on: 885512-296-R-J2-PDC complex spheroid growth, % test/control
Assay: Anticancer human tumor 885512-296-R-J2-PDC patient-derived breast carcinoma cell line growth inhibition [AhR]
Conditions: for viability, T/C: stronger effect = lower value
Summary of the method: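 Spheroids combined tumor cells with HUVEC endothelial cells and human MSCs as stroma. AhR antagonists were paired with standard or investigational drugs, each dosed in half-log steps down from near clinical Cmax, or from 10 microM where Cmax was unknown.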

[1] = curve of first compound, second compound 0.1 µM
[2] = curve of first compound, second compound 0.316 µM
[3] = curve of first compound, second compound 1 µM
[4] = curve of first compound, second compound 3.16 µM
[5] = curve of first compound, second compound 10 µM
[6] = second compound 0.1 µM, first compound 0.0316 µM
[7] = second compound 0.1 µM, first compound 0.1 µM
[8] = second compound 0.1 µM, first compound 0.316 µM
[9] = second compound 0.1 µM, first compound 1 µM
[10] = second compound 0.1 µM, first compound 3.16 µM
[11] = second compound 0.1 µM, first compound 10 µM
[12] = second compound 0.316 µM, first compound 0.0316 µM
[13] = second compound 0.316 µM, first compound 0.1 µM
[14] = second compound 0.316 µM, first compound 0.316 µM
[15] = second compound 0.316 µM, first compound 1 µM
[16] = second compound 0.316 µM, first compound 3.16 µM
[17] = second compound 0.316 µM, first compound 10 µM
[18] = second compound 1 µM, first compound 0.0316 µM
[19] = second compound 1 µM, first compound 0.1 µM
[20] = second compound 1 µM, first compound 0.316 µM
[21] = second compound 1 µM, first compound 1 µM
[22] = second compound 1 µM, first compound 3.16 µM
[23] = second compound 1 µM, first compound 10 µM
[24] = second compound 3.16 µM, first compound 0.0316 µM
[25] = second compound 3.16 µM, first compound 0.1 µM
[26] = second compound 3.16 µM, first compound 0.316 µM
[27] = second compound 3.16 µM, first compound 1 µM
[28] = second compound 3.16 µM, first compound 3.16 µM
[29] = second compound 3.16 µM, first compound 10 µM
[30] = second compound 10 µM, first compound 0.0316 µM
[31] = second compound 10 µM, first compound 0.1 µM
[32] = second compound 10 µM, first compound 0.316 µM
[33] = second compound 10 µM, first compound 1 µM
[34] = second compound 10 µM, first compound 3.16 µM
[35] = second compound 10 µM, first compound 10 µM
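Note: spheroids exposed to compounds for seven days.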

Structure (SMILES): CC(C)c1c(-c2ccccc2)nc2c(C#N)c[nH]n2c1=O + Cc1ccccc1N=Nc1ccc(NC(=O)c2ccnn2C)c(C)c1
IC50 [1]: > 10000 nM
IC50 [2]: > 10000 nM
IC50 [3]: > 10000 nM
IC50 [4]: > 10000 nM
IC50 [5]: < 31.6 nM
viability, T/C [6]: 105%
viability, T/C [7]: 106%
viability, T/C [8]: 108%
viability, T/C [9]: 110%
viability, T/C [10]: 111%
viability, T/C [11]: 104%
viability, T/C [12]: 106%
viability, T/C [13]: 104%
viability, T/C [14]: 111%
viability, T/C [15]: 104%
viability, T/C [16]: 102%
viability, T/C [17]: 99.4%
viability, T/C [18]: 96.2%
viability, T/C [19]: 94.4%
viability, T/C [20]: 98.4%
viability, T/C [21]: 98.6%
viability, T/C [22]: 90%
viability, T/C [23]: 96.4%
viability, T/C [24]: 80.9%
viability, T/C [25]: 79.2%
viability, T/C [26]: 82.7%
viability, T/C [27]: 88%
viability, T/C [28]: 81.8%
viability, T/C [29]: 67.3%
viability, T/C [30]: 45.5%
viability, T/C [31]: 50.8%
viability, T/C [32]: 55.2%
viability, T/C [33]: 45.4%
viability, T/C [34]: 47.4%
viability, T/C [35]: 42%

Structure (SMILES): Nc1ccn(C2OC(CO)C(O)C2(F)F)c(=O)n1 (configuration not stated) + Cc1ccccc1N=Nc1ccc(NC(=O)c2ccnn2C)c(C)c1
IC50 [1]: < 31.6 nM
IC50 [2]: < 31.6 nM
IC50 [3]: < 31.6 nM
IC50 [4]: < 31.6 nM
IC50 [5]: < 31.6 nM
viability, T/C [6]: 3.22%
viability, T/C [7]: 3.21%
viability, T/C [8]: 3.37%
viability, T/C [9]: 3.91%
viability, T/C [10]: 5.19%
viability, T/C [11]: 4.82%
viability, T/C [12]: 3.01%
viability, T/C [13]: 3.13%
viability, T/C [14]: 3.98%
viability, T/C [15]: 4.91%
viability, T/C [16]: 7.26%
viability, T/C [17]: 4.9%
viability, T/C [18]: 3.39%
viability, T/C [19]: 3.19%
viability, T/C [20]: 5.43%
viability, T/C [21]: 5.88%
viability, T/C [22]: 5.6%
viability, T/C [23]: 6.93%
viability, T/C [24]: 3.31%
viability, T/C [25]: 3.09%
viability, T/C [26]: 5.1%
viability, T/C [27]: 5.57%
viability, T/C [28]: 4.88%
viability, T/C [29]: 5.93%
viability, T/C [30]: 3.17%
viability, T/C [31]: 3.46%
viability, T/C [32]: 4.17%
viability, T/C [33]: 4.62%
viability, T/C [34]: 5.33%
viability, T/C [35]: 5.12%

Structure (SMILES): CC(C)CC(NC(=O)C(Cc1ccccc1)NC(=O)c1cnccn1)B(O)O (configuration not stated) + Cc1cncc(-c2nc(NCCc3c[nH]c4ccccc34)c3ncn(C(C)C)c3n2)c1
IC50 [1]: 6.75 nM
IC50 [2]: 6.48 nM
IC50 [3]: 5.6 nM
IC50 [4]: 3.63 nM
IC50 [5]: < 0.949 nM
viability, T/C (second compound 0.1 µM, first compound 0.000949 µM): 112%
viability, T/C (second compound 0.1 µM, first compound 0.003 µM): 114%
viability, T/C (second compound 0.1 µM, first compound 0.00949 µM): 23.6%
viability, T/C (second compound 0.1 µM, first compound 0.03 µM): 1.75%
viability, T/C (second compound 0.1 µM, first compound 0.0949 µM): 0.64%
viability, T/C (second compound 0.1 µM, first compound 0.3 µM): 0.17%
viability, T/C (second compound 0.316 µM, first compound 0.000949 µM): 103%
viability, T/C (second compound 0.316 µM, first compound 0.003 µM): 99%
viability, T/C (second compound 0.316 µM, first compound 0.00949 µM): 25.7%
viability, T/C (second compound 0.316 µM, first compound 0.03 µM): 1.08%
viability, T/C (second compound 0.316 µM, first compound 0.0949 µM): 0.32%
viability, T/C (second compound 0.316 µM, first compound 0.3 µM): 0.14%
viability, T/C (second compound 1 µM, first compound 0.000949 µM): 79.2%
viability, T/C (second compound 1 µM, first compound 0.003 µM): 87.7%
viability, T/C (second compound 1 µM, first compound 0.00949 µM): 21.8%
viability, T/C (second compound 1 µM, first compound 0.03 µM): 0.9%
viability, T/C (second compound 1 µM, first compound 0.0949 µM): 0.08%
viability, T/C (second compound 1 µM, first compound 0.3 µM): 0.13%
viability, T/C (second compound 3.16 µM, first compound 0.000949 µM): 52.5%
viability, T/C (second compound 3.16 µM, first compound 0.003 µM): 61%
viability, T/C (second compound 3.16 µM, first compound 0.00949 µM): 16.3%
viability, T/C (second compound 3.16 µM, first compound 0.03 µM): 0.59%
viability, T/C (second compound 3.16 µM, first compound 0.0949 µM): 0.07%
viability, T/C (second compound 3.16 µM, first compound 0.3 µM): 0.16%
viability, T/C (second compound 10 µM, first compound 0.000949 µM): 16.7%
viability, T/C (second compound 10 µM, first compound 0.003 µM): 16.9%
viability, T/C (second compound 10 µM, first compound 0.00949 µM): 1.8%
viability, T/C (second compound 10 µM, first compound 0.03 µM): 0.43%
viability, T/C (second compound 10 µM, first compound 0.0949 µM): 0.16%
viability, T/C (second compound 10 µM, first compound 0.3 µM): 0.22%

Structure (SMILES): CC1COCCN1c1cc(-c2ccnn2C)c2ccnc(-c3ccn[nH]3)c2n1 (configuration not stated)
viability, T/C (compound 0.00316 µM): 82.9% and 88.1% and 101%
viability, T/C (compound 0.01 µM): 87.9% and 89.4% and 87.5%
viability, T/C (compound 0.0316 µM): 51.9% and 54.7% and 68%
viability, T/C (compound 0.1 µM): 10.5% and 10.1% and 13%
viability, T/C (compound 0.316 µM): 3.44% and 3.12% and 2.94%
viability, T/C (compound 1 µM): 2.43% and 2.64% and 1.91%
IC50 (curve of compound): 34 nM and 36 nM and 45.5 nM

The next lines start with results.

IC50 [1]: 6340 nM
IC50 [2]: 7190 nM
IC50 [3]: 7580 nM
IC50 [4]: 7840 nM
IC50 [5]: 8440 nM
Structure (SMILES): CC1(C)CCC(CN2CCN(c3ccc(C(=O)NS(=O)(=O)c4ccc(NCC5CCOCC5)c([N+](=O)[O-])c4)c(Oc4cnc5[nH]ccc5c4)c3)CC2)=C(c2ccc(Cl)cc2)C1 + CC(CO)NC(=O)c1cc(-c2ccc(Cl)cc2)nn(-c2cnn(C)c2)c1=O
viability, T/C [6]: 111%
viability, T/C [7]: 105%
viability, T/C [8]: 102%
viability, T/C [9]: 91.7%
viability, T/C [10]: 70.7%
viability, T/C [11]: 36.4%
viability, T/C [12]: 96.3%
viability, T/C [13]: 111%
viability, T/C [14]: 100%
viability, T/C [15]: 96.5%
viability, T/C [16]: 70.6%
viability, T/C [17]: 41.7%
viability, T/C [18]: 96.7%
viability, T/C [19]: 108%
viability, T/C [20]: 112%
viability, T/C [21]: 99.7%
viability, T/C [22]: 78.6%
viability, T/C [23]: 41%
viability, T/C [24]: 102%
viability, T/C [25]: 118%
viability, T/C [26]: 103%
viability, T/C [27]: 100%
viability, T/C [28]: 81.5%
viability, T/C [29]: 41.6%
viability, T/C [30]: 106%
viability, T/C [31]: 99.4%
viability, T/C [32]: 103%
viability, T/C [33]: 103%
viability, T/C [34]: 90.8%
viability, T/C [35]: 42.6%

IC50 [1]: 6620 nM
IC50 [2]: 7170 nM
IC50 [3]: 6440 nM
IC50 [4]: 3070 nM
IC50 [5]: < 31.6 nM
Structure (SMILES): O=C(c1cc(Cc2n[nH]c(=O)c3ccccc23)ccc1F)N1CCN(C(=O)C2CC2)CC1 + Cc1cncc(-c2nc(NCCc3c[nH]c4ccccc34)c3ncn(C(C)C)c3n2)c1
viability, T/C [6]: 109%
viability, T/C [7]: 102%
viability, T/C [8]: 107%
viability, T/C [9]: 112%
viability, T/C [10]: 86.4%
viability, T/C [11]: 29.7%
viability, T/C [12]: 107%
viability, T/C [13]: 98.4%
viability, T/C [14]: 97.2%
viability, T/C [15]: 109%
viability, T/C [16]: 95%
viability, T/C [17]: 31.3%
viability, T/C [18]: 85.3%
viability, T/C [19]: 82.7%
viability, T/C [20]: 99.1%
viability, T/C [21]: 87.2%
viability, T/C [22]: 81.9%
viability, T/C [23]: 30.3%
viability, T/C [24]: 54.4%
viability, T/C [25]: 60.1%
viability, T/C [26]: 62.5%
viability, T/C [27]: 60.1%
viability, T/C [28]: 49.8%
viability, T/C [29]: 24.6%
viability, T/C [30]: 15.5%
viability, T/C [31]: 19.7%
viability, T/C [32]: 17.1%
viability, T/C [33]: 17.1%
viability, T/C [34]: 17.5%
viability, T/C [35]: 15.2%
